Source: paper PMC10545747, “Development of cyclopeptide inhibitors of cGAS targeting protein-DNA interaction and phase separation” (Nature Communications, 2023)
“And” between values parts separate entries of the source, which are not always exact repeats. Equal entries are not always repeated. Square brackets hold non-standard residues; d marks the D form. Peptide text beside a SMILES is read from it.

Legend:
in vitro = conditions: mouse, Cell viability (Fig. S2e)
Method: (§1) Cell viability was measured by cell counting kit-8 (TargetMol) according to the manufacturer’s instructions. […]
(§2) (e-g) THP1 cells (e), L929 cells (f) and RAW264.7 cells (g) were exposed to the indicated doses of XQ2 for 48h, the cell viability was measured by CCK8 assay. Data are representative of three independent experiments in (a-g). (Data are presented as mean ± SD, n = 3 independent samples in (a-g), **p < 0.01, ***p < 0.001, ****p < 0.0001 using one-way ANOVA with Dunnett’s post hoc test).
(§3) Source data are provided as a Source Data file.

RAW264.7 cells = test: in vitro; conditions: for Cell viability (Fig. S2e): RAW264.7 (48h)
Method: as §1, §2, §3

THP1 cells = test: Immunoblotting of phosphorylated IRF3/TBK1 and nuclear IRF3; format: cell-based, human
Method: Total cell lysates were prepared in RIPA lysis buffer (Beyotime Biotechnology) supplemented with 1 mM PMSF and 1× protease inhibitor cocktail (Yeasen), and nuclear protein was extracted by nuclear protein extraction kit (Solarbio) in accordance with the manufacturer’s instructions. The samples were separated by SDS-PAGE and transferred to the PVDF membrane (Millipore). The membranes were incubated with the indicated primary antibodies at 4 °C overnight and then incubated with an HRP-conjugated anti-rabbit IgG antibody (Cell Signaling, Cat# 7074, 1:5000) or anti-mouse IgG antibody (Cell Signaling, Cat# 7076, 1:5000) at room temperature for 1 h. The signal was visualized by using the NcmECL Ultra kit (New Cell & Molecular Biotech) and then was exposed by using MiniChemi (SageCreation).

[1] = system: Cy5-ISD (45-bp dsDNA ISD); test: Microscale thermophoresis (MST) with dsDNA; format: binding; conditions: Cy5-ISD 10 nM
Method: Excitation was optimized by varying the power to obtain fluorescence intensities above 200 counts. Data were analyzed by using the MO.Affinity Analysis software.

[2] = system: HSV-1-infected THP1 cells; test: HSV-1 cytopathogenic effect, CCK-8 viability; format: cell-based, human; conditions: for cell viability, CCK-8, Fig. 5e: XQ2 10 μM
L929 cells = test: HSV-1 cytopathogenic effect, crystal violet staining; format: cell-based, mouse; conditions: 10 μM
Method: L929 cells were seeded into 12-well plates at a density of 5 × 10^5 cells per well, and living cells were stained with crystal violet staining solution (Beyotime Biotechnology) according to the manufacturer’s instructions.

HSV-1-infected WT mice = test: HSV-1 infection of WT mice (serum ELISA, brain qPCR, IHC); format: in vivo, mouse; set-up: brain HSV-1 mRNA, qPCR, Fig. 6d / brain HSV-1(UL5) mRNA, qPCR, Fig. 6d: unit not given here
Method: Fig. 6 XQ2B attenuates the host innate antiviral response in vivo. a Chemical structure of XQ2 and XQ2B. b, c WT mice (n = 7) were injected intravenously with DMSO or XQ2B (10 mg/kg) for 3 h, and then administrated intravenously with HSV-1 at 1 × 10^7 pfu per mouse for 6 h. Serum from mice was collected for ELISA analysis of the levels of IFN-β (b) and CXCL10 (c). p = 0.0013 (b); p = 0.0175 (c). d Brains from mice (n = 6) in (b, c) were collected for qPCR analysis of the induction of HSV-1 and HSV-1(UL5) mRNA. p = 0.0287 (HSV-1); p = 0.0136 (HSV1-UL5). e Brains from mice in (b, c) were collected for immunohistochemistry (IHC) analysis with an anti-HSV-1 antibody. Tissue sections were visualized using microscopy. Scale bar, 25 μm. Data are representative of two independent experiments in (b–e). […] Source data are provided as a Source Data file.
The indicated cells were stimulated with either ISD (Sangon Biotech), HSV-1 (Provided by Dr. Zhengfan Jiang), HSV60mer (Sangon Biotech), SATE-cddA[70], 2’3’-cGAMP (Invivogen, Cat# tlrl-nacga23-1), ADU-S100 (MedChemExpress, Cat# HY-12885A) or Poly(I:C) (Invivogen, Cat# tlrl-pic) after XQ2 or XQ2B treatment. Total RNA was isolated from indicated cells that incubated with the drugs for indicated time or mice tissues by using NucleoZOL reagent (MACHEREY-NAGEL) according to the manufacturer’s instructions. The quantifications of mRNA levels were carried out by real-time PCR using a PerfectStart® Uni RT&qPCR Kit (TransGen Biotech) on the QuantStudio 5 qPCR machine (Applied Biosystems). Samples were carried out in triplicate and the target CT values were normalized to GAPDH CT values. Primers of qPCR used in this study can be found in Supplementary Table S2.
THP1 cells were seeded into 96-well plates, and cell culture supernatants were collected and analyzed by ELISA kits for human IFNβ levels (R&D Systems, Cat# DY814-05) and human CXCL10 levels (R&D Systems, Cat# DY266-05) according to the manufacturer’s instructions. Mice serum was collected and analyzed by ELISA kits for mouse IFNβ levels (R&D Systems, Cat# DY8234-05) and mouse CXCL10 levels (R&D Systems, Cat# DY466-05) according to the manufacturer’s protocols.
Tissues were resected and fixed successively in 4% paraformaldehyde, and embedded in paraffin according to the standard procedure, and then sectioned into 10-μm slices and placed on positively charged microscope slides. Sections of the brain were subjected to immunohistochemical (IHC) staining with an anti-HSV-1 antibody (Abcam, 1:100) and HRP-conjugated anti-rabbit IgG antibody (Cell Signaling, Cat# 7074, 1:200) according to standard procedures. Sections of the heart, stomach, tongue, kidney and muscle were stained with hematoxylin and eosin. Tissue sections were visualized using an Olympus IX73 microscope (20× Objective).

[3] = XQ2B 10 mg/kg i.v., individual mice

CC(C)C[C@@H]1NC(=O)[C@H](CCCNC(=N)N)NC(=O)[C@H](C(C)C)NC(=O)[C@@H]2CCCN2C(=O)[C@@H](Cc2ccccc2)NC(=O)[C@H](CC(C)C)NC(=O)[C@H](CCCNC(=N)N)NC(=O)[C@H](C(C)C)NC(=O)[C@H](C)NC(=O)[C@@H](Cc2ccccc2)NC1=O [XQ2, Cyclo (LfAVRLfPVR)] (cyclo(L[dF]AVRL[dF]PVR))
viability at 48 h, 0.23 µM (in vitro; L929 cells, L929 (48h), XQ2 0.23 μM): 108%
viability at 48 h, 0.47 µM (in vitro; L929 cells, L929 (48h), XQ2 0.47 μM): 90.1%
viability at 48 h, 0.94 µM (in vitro; L929 cells, L929 (48h), XQ2 0.94 μM): 83.6%
viability at 48 h, 1.88 µM (in vitro; L929 cells, L929 (48h), XQ2 1.88 μM): 85.4%
viability at 48 h, 3.75 µM (in vitro; L929 cells, L929 (48h), XQ2 3.75 μM): 90%
viability at 48 h, 7.5 µM (in vitro; L929 cells, L929 (48h), XQ2 7.5 μM): 93.1%
viability at 48 h, 15 µM (in vitro; L929 cells, L929 (48h), XQ2 15 μM): 86.3%
viability at 48 h, 0.16 µM (in vitro; RAW264.7 cells, RAW264.7 (48h), XQ2 0.16 μM): 100%
viability at 48 h, 0.31 µM (in vitro; RAW264.7 cells, RAW264.7 (48h), XQ2 0.31 μM): 102%
viability at 48 h, 0.63 µM (in vitro; RAW264.7 cells, RAW264.7 (48h), XQ2 0.63 μM): 104%
viability at 48 h, 1.25 µM (in vitro; RAW264.7 cells, RAW264.7 (48h), XQ2 1.25 μM): 104%
viability at 48 h, 2.5 µM (in vitro; RAW264.7 cells, RAW264.7 (48h), XQ2 2.5 μM): 104%
viability at 48 h, 5 µM (in vitro; RAW264.7 cells, RAW264.7 (48h), XQ2 5 μM): 102%
viability at 48 h, 10 µM (in vitro; RAW264.7 cells, RAW264.7 (48h), XQ2 10 μM): 103%
Cell viability (Fig. S2e) (RAW264.7 cells; XQ2 0.16 μM): 99.8864 and 99.6917
Cell viability (Fig. S2e) (RAW264.7 cells; XQ2 0.31 μM): 112.786 and 105.825
Cell viability (Fig. S2e) (RAW264.7 cells; XQ2 0.63 μM): 111.812 and 107.48
Cell viability (Fig. S2e) (RAW264.7 cells; XQ2 1.25 μM): 113.808 and 104.608
Cell viability (Fig. S2e) (RAW264.7 cells; XQ2 2.5 μM): 105.825 and 105.241
Cell viability (Fig. S2e) (RAW264.7 cells; XQ2 5 μM): 107.821 and 104.219
Cell viability (Fig. S2e) (RAW264.7 cells; XQ2 10 μM): 108.843 and 106.117
cytotoxicity (RAW264.7 cells; RAW264.7, 48h): no cytotoxicity
nuclear translocation of IRF-3, fractionation immunoblot (THP1 cells; ISD or HSV-1, 10 μM): substantially suppressed the nuclear translocation of IRF-3 induced by ISD and HSV-1
phosphorylation of TBK-1 and IRF-3 (THP1 cells; ISD/dsDNA 6 h): markedly decreased phosphorylation of TBK-1 and IRF-3 induced by ISD
binding with ISD, MST [1]: no binding of XQ2 with ISD
HSV-1 cytopathogenic effect in THP1 cells ([2]; 10 μM): HSV-1 produced marked cytopathogenic effect (CPE) in THP1 cells in the presence of XQ2
cell viability, CCK-8, Fig. 5e ([2]; Ctl): 102.857 and 110.714 and 112.321
cell viability, CCK-8, Fig. 5e ([2]; HSV-1 1×10^4 pfu): 101.071 and 114.286 and 103.571
cell viability, CCK-8, Fig. 5e ([2]; HSV-1 1×10^5 pfu): 37.5 and 43.3929 and 38.0357
cell viability, CCK-8, Fig. 5e ([2]; HSV-1 2×10^4 pfu): 57.3214 and 52.5 and 50.7143
cell viability, CCK-8, Fig. 5e ([2]; HSV-1 5×10^4 pfu): 52.8571 and 47.6786 and 46.7857
HSV-1-induced cytopathogenic effect in L929 cells (L929 cells): promotion of XQ2 on HSV-1-induced cytopathogenic effect in mouse fibroblast L929 cells

CC(C)C[C@@H]1NC(=O)[C@H](CCCNC(=N)N)NC(=O)[C@H](C(C)C)NC(=O)[C@@H]2CCCN2C(=O)[C@@H](Cc2ccccc2)NC(=O)[C@H](CC(C)C)NC(=O)[C@H](CCCNC(=N)N)NC(=O)[C@H]([C@@H](C)O)NC(=O)[C@H](C)NC(=O)[C@@H](Cc2ccccc2)NC1=O [XQ2B] (cyclo([dF]ATRL[dF]PVRL))
production of IFN-β and CXCL10 upon HSV-1 infection in mice (HSV-1-infected WT mice; 10 mg/kg intravenous): significantly impaired the production of IFN-β and CXCL10 upon HSV-1 infection in mice
virus infection in brain tissues of mice (HSV-1-infected WT mice; 10 mg/kg intravenous): promoted virus infection in the brain tissues of mice
serum IFN-β, ELISA, Fig. 6b (HSV-1-infected WT mice; XQ2B 10 mg/kg i.v. 3 h before HSV-1 1 × 10^7 pfu i.v., 6 h, individual mice): 234.609 and 247.685 and 151.05 and 229.558 and 128.472 and 521.967 and 514.758
serum CXCL10, ELISA, Fig. 6c (HSV-1-infected WT mice; XQ2B 10 mg/kg i.v., HSV-1 6 h, individual mice): 2266.42 and 1272.19 and 1516.42 and 1969.73 and 1635.92 and 1666.83 and 2034.41
brain HSV-1(UL5) mRNA, qPCR, Fig. 6d (HSV-1-infected WT mice; [3]): 2.362 and 11.4426 and 5.671 and 29.1839 and 18.1733 and 12.9008
brain HSV-1 mRNA, qPCR, Fig. 6d (HSV-1-infected WT mice; [3]): 4.055 and 17.5547 and 15.5667 and 41.0988 and 9.75 and 4.86
